Results from patent publication US6706663B2, “Herbicidal 3-heterocyclic substituted benzisothiazole and benzisoxazole compounds” (Wyeth, priority 2000, dated 2004).

Key:
[1] = tested on: IPOHE (Ipomoea hederacea); test: Postemergence herbicidal evaluation; assay type: in vivo, (L.) Jacq.; conditions: postemergence
Summary of the method: (§1)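 Visual 0–9 injury scores versus control plants, covering stand, vigour, malformation, size, chlorosis and general appearance, taken four to five weeks post-spray and averaged over replicate tests. Plants were sprayed at roughly two weeks old and held on greenhouse benches.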

[2] = tested on: ECHCG (Echinochloa crus-galli); test: Postemergence herbicidal evaluation; assay type: in vivo, (L.) Beau; conditions: postemergence
Summary of the method: as §1

SETVI (Setaria viridis) [3] = test: Postemergence herbicidal evaluation; assay type: in vivo, (L.) Beau; conditions: postemergence
Summary of the method: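 Visual injury score (0-9: stand, vigor, malformation, size, chlorosis, overall appearance vs untreated control) taken four to five weeks post-spray. Two-week-old seedlings received about 0.0040 to 1.000 kg/ha active compound in acetone/water with 0.5% TWEEN 20.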

[4] = tested on: GLXMAW (Soybean, Williams); test: Postemergence herbicidal evaluation; assay type: in vivo, Glycine max, (L.) Merr. cv Williams; conditions: postemergence
Summary of the method: as §1

ORYSAT (Rice, Tebonnet) [5] = test: Postemergence herbicidal evaluation; assay type: in vivo, Oryza sativa, (L.) Tebonnet; conditions: postemergence
Summary of the method: as §1

[6] = tested on: TRZAWR (Wheat, Winter, cv Riband); test: Postemergence herbicidal evaluation; assay type: in vivo, Triticum aestivum; conditions: postemergence
Summary of the method: as §1

ZEAMX (Corn, Field) = test: Postemergence herbicidal evaluation; assay type: in vivo, Zea mays, L.; conditions: postemergence
Summary of the method: as §1

[7] = tested on: ABUTH (Abutilon theophrasti); test: Preemergence herbicidal evaluation; assay type: in vivo, Medic.; conditions: rated 4-5 weeks after treatment
[8] = tested on: AMBEL (Ambrosia artemisifolia); test: Preemergence herbicidal evaluation; assay type: in vivo, L.; conditions: rated 4-5 weeks after treatment
Summary of the method: (§2)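 Visual 0-9 rating versus untreated control, taken four to five weeks post-treatment, scoring stand, vigor, malformation, size, chlorosis and overall appearance. Compound applied as aqueous acetone spray to freshly seeded soil cups, then kept under standard greenhouse care.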

[9] = tested on: CASOB (Cassia obtusifolia); test: Preemergence herbicidal evaluation; assay type: in vivo, L.; conditions: rated 4-5 weeks after treatment
Summary of the method: as §2

[10] = tested on: CHEAL (Chenopodium album); test: Preemergence herbicidal evaluation; assay type: in vivo, L.; conditions: rated 4-5 weeks after treatment
Summary of the method: as §2

GALAP (Galium aparine) = test: Preemergence herbicidal evaluation; assay type: in vivo; conditions: rated 4-5 weeks after treatment
Summary of the method: as §2

[11] = tested on: ECHCG (Echinochloa crus-galli); test: Preemergence herbicidal evaluation; assay type: in vivo, (L.) Beau; conditions: rated 4-5 weeks after treatment
Summary of the method: as §2

SETVI (Setaria viridis) [12] = test: Preemergence herbicidal evaluation; assay type: in vivo, (L.) Beau; conditions: rated 4-5 weeks after treatment
Summary of the method: as §2

ORYSAT (Rice, Tebonnet) [13] = test: Preemergence herbicidal evaluation; assay type: in vivo, Oryza sativa, (L.) Tebonnet; conditions: rated 4-5 weeks after treatment
[14] = tested on: TRZAWR (Wheat, Winter, cv Riband); test: Preemergence herbicidal evaluation; assay type: in vivo, Triticum aestivum; conditions: rated 4-5 weeks after treatment
Summary of the method: as §2

[15] = tested on: ECHORC (Echinochloa oryzoides); test: Flooded paddy, preemergence weed control; assay type: in vivo, Echinochloa oryzoides (Ard.) Fritsch.; conditions: rated 3-4 weeks after treatment, 0-9 rating scale
Summary of the method: (§3)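 Flooded silt loam pots, seeds in upper 0.5 cm, water held 1.5–3 cm deep; greenhouse; visual 0-9 score vs control.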

[16] = tested on: MOOVA (Monochoria vaginalis); test: Flooded paddy, preemergence weed control; assay type: in vivo, Presl.; conditions: rated 3-4 weeks after treatment, 0-9 rating scale
Summary of the method: as §3

Cn1c(C(F)(F)F)cc(=O)n(-c2ccc3snc(C4OC(=O)C(C)(C)O4)c3c2)c1=O (stereo not shown) [Compound 71, 3-[3-(4,4-dimethyl-5-oxo-1,3-dioxolan-2-yl)-1,2-benzisothiazol-5-yl]-1-methyl-6-(trifluoromethyl)uracil]
7.0: SETVI herbicidal rating (SETVI (Setaria viridis) [3]; rate 0.0620 kg/ha) | Preemergence herbicidal rating TRZAWR ([14]; Rate 0.1250 kg/ha)
6.5: Preemergence herbicidal rating CASOB ([9]; Rate 0.1250 kg/ha)
0.0: herbicidal rating, ECHORC ([15]; rate 0.0080 kg/ha) | herbicidal rating, ECHORC ([15]; rate 0.0320 kg/ha) | herbicidal rating, ECHORC ([15]; rate 0.1250 kg/ha) | herbicidal rating, MOOVA ([16]; rate 0.0080 kg/ha) | herbicidal rating, MOOVA ([16]; rate 0.0320 kg/ha) | herbicidal rating, MOOVA ([16]; rate 0.1250 kg/ha)
9.0: IPOHE herbicidal rating ([1]; rate 0.0320 kg/ha) | IPOHE herbicidal rating ([1]; rate 0.0620 kg/ha) | Preemergence herbicidal rating ABUTH ([7]; Rate 0.1250 kg/ha) | Preemergence herbicidal rating ABUTH ([7]; Rate 0.2500 kg/ha) | Preemergence herbicidal rating AMBEL ([8]; Rate 0.1250 kg/ha) | Preemergence herbicidal rating AMBEL ([8]; Rate 0.2500 kg/ha) | Preemergence herbicidal rating CHEAL ([10]; Rate 0.0620 kg/ha) | Preemergence herbicidal rating CHEAL ([10]; Rate 0.1250 kg/ha) | Preemergence herbicidal rating CHEAL ([10]; Rate 0.2500 kg/ha) | Preemergence herbicidal rating GALAP (GALAP (Galium aparine); Rate 0.1250 kg/ha) | Preemergence herbicidal rating GALAP (GALAP (Galium aparine); Rate 0.2500 kg/ha) | Preemergence herbicidal rating SETVI (SETVI (Setaria viridis) [12]; Rate 0.1250 kg/ha) | Preemergence herbicidal rating SETVI (SETVI (Setaria viridis) [12]; Rate 0.2500 kg/ha)
8.0: Preemergence herbicidal rating ABUTH ([7]; Rate 0.0620 kg/ha) | Preemergence herbicidal rating AMBEL ([8]; Rate 0.0620 kg/ha) | Preemergence herbicidal rating ECHCG ([11]; Rate 0.1250 kg/ha) | Preemergence herbicidal rating ECHCG ([11]; Rate 0.2500 kg/ha) | Preemergence herbicidal rating SETVI (SETVI (Setaria viridis) [12]; Rate 0.0620 kg/ha) | Preemergence herbicidal rating ORYSAT (ORYSAT (Rice, Tebonnet) [13]; Rate 0.1250 kg/ha) | Preemergence herbicidal rating TRZAWR ([14]; Rate 0.2500 kg/ha)
4.0: Preemergence herbicidal rating TRZAWR ([14]; Rate 0.0620 kg/ha)
2.0: SETVI herbicidal rating (SETVI (Setaria viridis) [3]; rate 0.0320 kg/ha)
6.0: Preemergence herbicidal rating GALAP (GALAP (Galium aparine); Rate 0.0620 kg/ha)
5.5: Preemergence herbicidal rating ECHCG ([11]; Rate 0.0620 kg/ha) | Preemergence herbicidal rating ORYSAT (ORYSAT (Rice, Tebonnet) [13]; Rate 0.0620 kg/ha)
7.5: Preemergence herbicidal rating CASOB ([9]; Rate 0.2500 kg/ha)
3.5: TRZAWR herbicidal rating ([6]; rate 0.0620 kg/ha) | Preemergence herbicidal rating CASOB ([9]; Rate 0.0620 kg/ha)
1.0: ECHCG herbicidal rating ([2]; rate 0.0320 kg/ha)
4.5: GLXMAW herbicidal rating ([4]; rate 0.0320 kg/ha) | GLXMAW herbicidal rating ([4]; rate 0.0620 kg/ha) | ORYSAT herbicidal rating (ORYSAT (Rice, Tebonnet) [5]; rate 0.0620 kg/ha) | ZEAMX herbicidal rating (ZEAMX (Corn, Field); rate 0.0320 kg/ha)
5.0: ZEAMX herbicidal rating (ZEAMX (Corn, Field); rate 0.0620 kg/ha)
8.5: Preemergence herbicidal rating ORYSAT (ORYSAT (Rice, Tebonnet) [13]; Rate 0.2500 kg/ha)
3.0: ECHCG herbicidal rating ([2]; rate 0.0620 kg/ha) | ORYSAT herbicidal rating (ORYSAT (Rice, Tebonnet) [5]; rate 0.0320 kg/ha) | TRZAWR herbicidal rating ([6]; rate 0.0320 kg/ha)

Cn1c(C(F)(F)F)cc(=O)n(-c2ccc3snc(C4OCC(CCl)O4)c3c2)c1=O (stereo not shown) [Compound 72, 3-[3-[4-(chloromethyl)-1,3-dioxolan-2-yl]-1,2-benzisothiazol-5-yl]-1-methyl-6-(trifluoromethyl)uracil]
4.0: ORYSAT herbicidal rating (ORYSAT (Rice, Tebonnet) [5]; rate 0.0320 kg/ha)
8.0: SETVI herbicidal rating (SETVI (Setaria viridis) [3]; rate 0.0320 kg/ha) | SETVI herbicidal rating (SETVI (Setaria viridis) [3]; rate 0.0620 kg/ha) | Preemergence herbicidal rating CASOB ([9]; Rate 0.2500 kg/ha) | Preemergence herbicidal rating GALAP (GALAP (Galium aparine); Rate 0.0620 kg/ha)
9.0: IPOHE herbicidal rating ([1]; rate 0.0320 kg/ha) | IPOHE herbicidal rating ([1]; rate 0.0620 kg/ha) | Preemergence herbicidal rating ABUTH ([7]; Rate 0.0620 kg/ha) | Preemergence herbicidal rating ABUTH ([7]; Rate 0.1250 kg/ha) | Preemergence herbicidal rating ABUTH ([7]; Rate 0.2500 kg/ha) | Preemergence herbicidal rating AMBEL ([8]; Rate 0.0620 kg/ha) | Preemergence herbicidal rating AMBEL ([8]; Rate 0.1250 kg/ha) | Preemergence herbicidal rating AMBEL ([8]; Rate 0.2500 kg/ha) | Preemergence herbicidal rating CHEAL ([10]; Rate 0.0620 kg/ha) | Preemergence herbicidal rating CHEAL ([10]; Rate 0.1250 kg/ha) | Preemergence herbicidal rating CHEAL ([10]; Rate 0.2500 kg/ha) | Preemergence herbicidal rating GALAP (GALAP (Galium aparine); Rate 0.1250 kg/ha) | Preemergence herbicidal rating GALAP (GALAP (Galium aparine); Rate 0.2500 kg/ha) | Preemergence herbicidal rating ECHCG ([11]; Rate 0.0620 kg/ha) | Preemergence herbicidal rating ECHCG ([11]; Rate 0.1250 kg/ha) | Preemergence herbicidal rating ECHCG ([11]; Rate 0.2500 kg/ha) | Preemergence herbicidal rating SETVI (SETVI (Setaria viridis) [12]; Rate 0.0620 kg/ha) | Preemergence herbicidal rating SETVI (SETVI (Setaria viridis) [12]; Rate 0.1250 kg/ha) | Preemergence herbicidal rating SETVI (SETVI (Setaria viridis) [12]; Rate 0.2500 kg/ha) | Preemergence herbicidal rating ORYSAT (ORYSAT (Rice, Tebonnet) [13]; Rate 0.2500 kg/ha) | Preemergence herbicidal rating TRZAWR ([14]; Rate 0.1250 kg/ha) | Preemergence herbicidal rating TRZAWR ([14]; Rate 0.2500 kg/ha) | herbicidal rating, ECHORC ([15]; rate 0.0320 kg/ha) | herbicidal rating, ECHORC ([15]; rate 0.1250 kg/ha) | herbicidal rating, MOOVA ([16]; rate 0.0320 kg/ha) | herbicidal rating, MOOVA ([16]; rate 0.1250 kg/ha)
0.0: herbicidal rating, MOOVA ([16]; rate 0.0080 kg/ha)
7.0: Preemergence herbicidal rating TRZAWR ([14]; Rate 0.0620 kg/ha)
6.5: GLXMAW herbicidal rating ([4]; rate 0.0320 kg/ha) | Preemergence herbicidal rating CASOB ([9]; Rate 0.1250 kg/ha)
4.5: ORYSAT herbicidal rating (ORYSAT (Rice, Tebonnet) [5]; rate 0.0620 kg/ha) | TRZAWR herbicidal rating ([6]; rate 0.0620 kg/ha)
8.5: GLXMAW herbicidal rating ([4]; rate 0.0620 kg/ha) | Preemergence herbicidal rating ORYSAT (ORYSAT (Rice, Tebonnet) [13]; Rate 0.0620 kg/ha) | Preemergence herbicidal rating ORYSAT (ORYSAT (Rice, Tebonnet) [13]; Rate 0.1250 kg/ha)
5.0: ZEAMX herbicidal rating (ZEAMX (Corn, Field); rate 0.0320 kg/ha) | ZEAMX herbicidal rating (ZEAMX (Corn, Field); rate 0.0620 kg/ha) | herbicidal rating, ECHORC ([15]; rate 0.0080 kg/ha)
3.5: TRZAWR herbicidal rating ([6]; rate 0.0320 kg/ha)
3.0: ECHCG herbicidal rating ([2]; rate 0.0320 kg/ha) | ECHCG herbicidal rating ([2]; rate 0.0620 kg/ha) | Preemergence herbicidal rating CASOB ([9]; Rate 0.0620 kg/ha)
